Assay results: US10729817B2, “Medical device and plasticized nylon” (Medtronic Vascular, Inc., priority 2013, dated 2020)

What was measured:
[1] = Thermal properties of plasticized Nylon-12 by DSC; assay type: physicochemical; details: for Crystallinity / mp: 10 wt-% plasticizer in RILSAN Nylon-12, Nylon-12 unplasticized
Description: (§1) Samples of 5, 10, and 15 wt-% of plasticizer from Example 1 were compounded with Nylon-12 in a Brabender mixer at 210° C. Sheets (30-mils thick) were pressed at 200° C. Tensile specimens were punched and tested on an INSTRON testing machine at a cross-head speed of 2 inches/minute according to ASTM D638 test Method. The flexural properties were tested according to ASTM D790-97B test method. The average tensile and flexural moduli of plasticized Nylon-12 are shown in FIG. 3 and FIG. 4, respectively.
(§2) A sample of 10 wt-% of plasticizer from each of Examples 15-17 was compounded with RILSAN Nylon-12 as described in Example 2. The melting point (mp) and crystallinity was determined by DSC.
(§3) A sample of 10 wt-% of plasticizer from each of Examples 4-5 and 19-20 was compounded with RILSAN Nylon-12 as described in Example 2. The melting point (mp) and crystallinity was determined by DSC.

[2] = Tensile test of pressed films, ASTM D638, INSTRON; assay type: physicochemical; details: for Elongation / Tensile Modulus / Tensile Strength / Tensile elastic modulus: 10 wt-% plasticizer in RILSAN Nylon-12 film; for Elongation / Tensile Modulus / Tensile Strength: Nylon-12 unplasticized
Description: as §1, §2, §3
A sample of 5-10 wt-% in RILSAN Nylon-12 was compounded with 5-10 wt-% plasticizer from Example 8 under similar conditions as in Example 9. Sheets (30-mils thick) were pressed at 200° C. from pellets. Tensile specimens were punched and tested on an INSTRON testing machine at a cross-head speed of 2 inches/minute according to ASTM D638 test Method.

[3] = Flexural properties of pressed films, ASTM D790-97B; assay type: physicochemical; details: for Flexural elastic modulus: 10 wt-% plasticizer in RILSAN Nylon-12 film
Description: as §1

[4] = Thermal properties of plasticized Nylon-12 by DSC; assay type: physicochemical
[5] = 5, 10, 15 wt-% plasticizer in Nylon-12
[6] = 5-10 wt-% plasticizer in RILSAN Nylon-12
[7] = 10 wt-% plasticizer in GRILAMID L25 Nylon-12

| Crystallinity ([1]; Table 3) | mp ([1]; Table 3) | Elongation ([2]; Table 3) | Tensile Modulus ([2]; Table 3) | Tensile Strength ([2]; Table 3) | Crystallinity ([1]; Table 2) | mp ([1]; Table 2) | Elongation ([2]; Table 2) | Tensile Modulus ([2]; Table 2) | Tensile Strength ([2]; Table 2) | Structure (SMILES) | other results |
| --- | --- | --- | --- | --- | --- | --- | --- | --- | --- | --- | --- |
| – | – | – | – | – | – | – | – | – | – | CCCCCCCC(=O)NCCN(CCNC(=O)CCCCCCC)C(=O)CCCCCCC [Example 1, N,N′,N″-trioctanoyl diethylenetriamine] | % Crystallinity ([1]; 5% plasticizer in Nylon-12): 28.8%; Tm Melt peak ([1]; 5% plasticizer in Nylon-12): 176.6 °C; ΔHm ([1]; 10% plasticizer in Nylon-12): 58.2 J/g; % Crystallinity ([1]; 15% plasticizer in Nylon-12): 26.2%; Tensile modulus of Nylon-12 after adding the plasticizer [2, 5]: decreased; Flexural modulus of Nylon-12 after adding the plasticizer [3, 5]: decreased; ΔHm ([4]; 5% plasticizer in Nylon-12): 60.2 J/g; % Crystallinity ([4]; 10% plasticizer in Nylon-12): 27.8%; Tm Melt peak ([4]; 10% plasticizer in Nylon-12): 175.9 °C; Tm Melt peak ([4]; 15% plasticizer in Nylon-12): 173.9 °C; ΔHm ([4]; 15% plasticizer in Nylon-12): 54.7 J/g |
| 29.8 % by DSC | 175.2 °C | 231% | 66588 psi | 7422 psi | – | – | – | – | – | CCCCCCC(=O)NCCN(CCNC(=O)CCCCCC)C(=O)CCCCCC [Example 4, N,N′,N″-triheptanoyl diethylenetriamine] | – |
| 29.2 % by DSC | 176.0 °C | 226% | 74935 psi | 7411 psi | – | – | – | – | – | CCCCCCCCC(=O)NCCN(CCNC(=O)CCCCCCCC)C(=O)CCCCCCCC [Example 5, N,N′,N″-trinonanoyl diethylenetriamine] | – |
| – | – | – | – | – | – | – | – | – | – | CCCCCCCC(=O)NCCN(CCNC(=O)CCCCCCC)C(=O)CCCCCCC [Example 8, N,N′,N″-trioctanoyl diethylenetriamine] | Tensile modulus versus plasticizer content [2, 6]: decreased with increasing plastic content; Tensile strength versus plasticizer content [2, 6]: did not change; Tensile strength of base resin GRILAMID L25 after adding plasticizer [2, 7]: maintained; Tensile elastic modulus ([2]; listed as unpurified material): 82997 psi; Flexural modulus after adding plasticizer [3, 7]: decreased significantly; Flexural elastic modulus ([3]; listed as unpurified material): 72345 psi |
| – | – | – | – | – | – | – | – | – | – | CCCCCCCC(=O)NCCN(CCNC(=O)CCCCCCC)C(=O)CCCCCCC [Example 13, N,N′,N″-trioctanoyl diethylenetriamine] | Tensile elastic modulus [2]: 85644 psi; Flexural elastic modulus [3]: 71839 psi; melting point: 97.9 °C |
| – | – | – | – | – | 24.6 % by DSC | 175.6 °C | 258% | 83455 psi | 8637 psi | CCCCCCC(=O)NCCCN(CCNC(=O)CCCCCC)C(=O)CCCCCC [Example 16, N-(2-aminoethyl)-1,3-propanediamine heptanoic acid triamide] | – |
| – | – | – | – | – | 25.2 % by DSC | 175.5 °C | 263% | 81308 psi | 8871 psi | CCCCCCCC(=O)NCCCN(CCNC(=O)CCCCCCC)C(=O)CCCCCCC [Example 17, N-(2-aminoethyl)-1,3-propanediamine octanoic acid triamide] | – |
| – | – | – | – | – | 26.7 % by DSC | 176.2 °C | 238% | 95902 psi | 9079 psi | CCCCCCCC(=O)NCCN(CCN(CCNC(=O)CCCCCCC)C(=O)CCCCCCC)C(=O)CCCCCCC [Example 18, Triethylenetetramine Octanoic Acid Tetramide] | – |
| 31.0 % by DSC | 175.9 °C | 251% | 83517 psi | 8034 psi | – | – | – | – | – | CCCCCCCCCC(=O)NCCN(CCNC(=O)CCCCCCCCC)C(=O)CCCCCCCCC [Example 20, N,N′,N″-tridecanoyl diethylenetriamine] | – |
